Measured values taken from ChEMBL document CHEMBL5634121, “Discovery of novel G9a/GLP covalent inhibitors for the treatment of triple-negative breast cancer” (Eur J Med Chem, 2023).
The source made the active and inactive calls. The calls are words filed in the database; no cut-off is given here.

Assays:
MDA-MB-231 [1] = test: Antiproliferative activity against human MDA-MB-231 cells incubated for 3 to 5 days by MTT assay; type: functional, cell-based
4T1 = test: Antiproliferative activity against mouse 4T1 cells incubated for 3 to 5 days by MTT assay; type: functional, cell-based
[2] = target: T1, Histone-lysine N-methyltransferase EHMT2 (Homo sapiens) (UniProt Q96KQ7); test: Inhibition of G9a (unknown origin) at 1 uM by AlphaLISA immunodetection assay relative to control
T1 sequence (whole entry): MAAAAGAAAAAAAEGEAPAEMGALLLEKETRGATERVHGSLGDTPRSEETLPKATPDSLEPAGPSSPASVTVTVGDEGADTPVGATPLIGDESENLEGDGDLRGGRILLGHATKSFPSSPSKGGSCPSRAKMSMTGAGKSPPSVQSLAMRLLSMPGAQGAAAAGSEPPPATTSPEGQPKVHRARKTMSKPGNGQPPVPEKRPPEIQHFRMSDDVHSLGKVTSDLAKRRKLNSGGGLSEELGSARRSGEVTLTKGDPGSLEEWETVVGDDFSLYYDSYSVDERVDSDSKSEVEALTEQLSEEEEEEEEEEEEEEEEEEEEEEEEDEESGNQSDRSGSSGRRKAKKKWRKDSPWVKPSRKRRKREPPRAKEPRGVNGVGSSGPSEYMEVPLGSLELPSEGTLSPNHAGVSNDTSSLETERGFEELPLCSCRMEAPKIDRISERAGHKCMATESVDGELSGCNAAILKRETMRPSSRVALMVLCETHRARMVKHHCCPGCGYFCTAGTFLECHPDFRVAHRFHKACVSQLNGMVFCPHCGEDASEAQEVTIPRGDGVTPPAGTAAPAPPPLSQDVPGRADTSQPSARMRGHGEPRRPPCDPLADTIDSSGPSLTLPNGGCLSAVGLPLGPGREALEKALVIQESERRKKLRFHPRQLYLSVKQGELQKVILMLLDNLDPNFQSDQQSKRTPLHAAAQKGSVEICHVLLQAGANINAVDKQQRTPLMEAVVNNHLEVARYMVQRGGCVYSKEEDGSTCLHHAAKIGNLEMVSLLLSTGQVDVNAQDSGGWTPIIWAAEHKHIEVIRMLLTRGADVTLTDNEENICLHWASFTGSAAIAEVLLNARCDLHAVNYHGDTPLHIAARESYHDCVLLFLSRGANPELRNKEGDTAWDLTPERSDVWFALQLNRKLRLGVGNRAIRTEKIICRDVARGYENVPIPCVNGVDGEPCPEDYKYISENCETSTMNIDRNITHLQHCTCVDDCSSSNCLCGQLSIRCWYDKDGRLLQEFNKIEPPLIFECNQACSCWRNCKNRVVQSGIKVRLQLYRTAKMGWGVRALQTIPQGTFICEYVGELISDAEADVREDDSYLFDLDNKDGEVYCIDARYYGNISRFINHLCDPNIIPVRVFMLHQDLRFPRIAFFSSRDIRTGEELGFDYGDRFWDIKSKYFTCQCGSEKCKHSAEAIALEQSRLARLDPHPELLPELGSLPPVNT

[3] = Cytotoxicity against human L02 cells assessed as reduction in cell viability incubated for 2 days by MTT assay; type: toxicity, cell-based
[4] = target: T1, Histone-lysine N-methyltransferase EHMT2 (Homo sapiens); test: Inhibition of G9a (unknown origin)
MDA-MB-231 [5] = test: Induction of apoptosis in human MDA-MB-231 cells assessed as late apoptotic cells at 20 uM incubated for 72 hrs by Annexin V and PI staining based flow cytometry analysis (reference value: 0.45 %); type: functional
MDA-MB-231 [6] = test: Induction of apoptosis in human MDA-MB-231 cells assessed as necrotic cells at 20 uM incubated for 72 hrs by Annexin V and PI staining based flow cytometry analysis (reference value: 0.32 %); type: functional
MDA-MB-231 [7] = test: Induction of apoptosis in human MDA-MB-231 cells assessed as viable cells at 20 uM incubated for 72 hrs by Annexin V and PI staining based flow cytometry analysis (reference value: 98.31 %); type: functional; conditions: read-out: Activity
MDA-MB-231 [8] = test: Induction of apoptosis in human MDA-MB-231 cells assessed as early apoptotic cells at 20 uM incubated for 72 hrs by Annexin V and PI staining based flow cytometry analysis (reference value: 0.92 %); type: functional
[9] = target: T2, Histone-lysine N-methyltransferase EHMT1/EHMT2 (Homo sapiens) (UniProt Q9H9B1+Q96KQ7); test: Inhibition of G9a/GLP in human MDA-MB-231 cells assessed as reduction in H3K9 dimethylation at 20 uM incubated for 3 days by Western blotting analysis; type: cell-based; conditions: time 3.0 day
MDA-MB-231 [10] = test: Antiproliferative activity against human MDA-MB-231 cells assessed as cell growth inhibition at 20 uM incubated for 1 day followed by compound washout and measured after 1 to 4 days; type: functional, cell-based
MDA-MB-231 [11] = test: Antiproliferative activity against human MDA-MB-231 cells after 5 days by MTT assay; type: functional, cell-based; conditions: MDA-MB-231, 120 h
[12] = target: T2, Histone-lysine N-methyltransferase EHMT1/EHMT2 (Homo sapiens); test: Inhibition of G9a/GLP in human MDA-MB-231 cells assessed as reduction in H3K9 dimethylation incubated for 3 days by Western blotting analysis; type: cell-based; conditions: dose 2.5-20 µM, time 3.0 day
[13] = target: T2, Histone-lysine N-methyltransferase EHMT1/EHMT2 (Homo sapiens); test: Inhibition of G9a/GLP in human MDA-MB-231 cells assessed as reduction in H3K9 dimethylation at 20 uM incubated for 1 day followed by compound washout and measured after 1 to 4 days; type: cell-based
MDA-MB-231 [14] = test: Inhibition of colony formation in human MDA-MB-231 cells at 1 to 10 uM refreshed every 4 days for 12 days by crystal violet staining based assay; type: functional, cell-based; conditions: dose 1-10 µM, time 12.0 day
[15] = target: T3, Histone-lysine N-methyltransferase EHMT1 (Homo sapiens) (UniProt Q9H9B1); test: Inhibition of GLP (unknown origin) at 1 uM
T3 sequence (whole entry): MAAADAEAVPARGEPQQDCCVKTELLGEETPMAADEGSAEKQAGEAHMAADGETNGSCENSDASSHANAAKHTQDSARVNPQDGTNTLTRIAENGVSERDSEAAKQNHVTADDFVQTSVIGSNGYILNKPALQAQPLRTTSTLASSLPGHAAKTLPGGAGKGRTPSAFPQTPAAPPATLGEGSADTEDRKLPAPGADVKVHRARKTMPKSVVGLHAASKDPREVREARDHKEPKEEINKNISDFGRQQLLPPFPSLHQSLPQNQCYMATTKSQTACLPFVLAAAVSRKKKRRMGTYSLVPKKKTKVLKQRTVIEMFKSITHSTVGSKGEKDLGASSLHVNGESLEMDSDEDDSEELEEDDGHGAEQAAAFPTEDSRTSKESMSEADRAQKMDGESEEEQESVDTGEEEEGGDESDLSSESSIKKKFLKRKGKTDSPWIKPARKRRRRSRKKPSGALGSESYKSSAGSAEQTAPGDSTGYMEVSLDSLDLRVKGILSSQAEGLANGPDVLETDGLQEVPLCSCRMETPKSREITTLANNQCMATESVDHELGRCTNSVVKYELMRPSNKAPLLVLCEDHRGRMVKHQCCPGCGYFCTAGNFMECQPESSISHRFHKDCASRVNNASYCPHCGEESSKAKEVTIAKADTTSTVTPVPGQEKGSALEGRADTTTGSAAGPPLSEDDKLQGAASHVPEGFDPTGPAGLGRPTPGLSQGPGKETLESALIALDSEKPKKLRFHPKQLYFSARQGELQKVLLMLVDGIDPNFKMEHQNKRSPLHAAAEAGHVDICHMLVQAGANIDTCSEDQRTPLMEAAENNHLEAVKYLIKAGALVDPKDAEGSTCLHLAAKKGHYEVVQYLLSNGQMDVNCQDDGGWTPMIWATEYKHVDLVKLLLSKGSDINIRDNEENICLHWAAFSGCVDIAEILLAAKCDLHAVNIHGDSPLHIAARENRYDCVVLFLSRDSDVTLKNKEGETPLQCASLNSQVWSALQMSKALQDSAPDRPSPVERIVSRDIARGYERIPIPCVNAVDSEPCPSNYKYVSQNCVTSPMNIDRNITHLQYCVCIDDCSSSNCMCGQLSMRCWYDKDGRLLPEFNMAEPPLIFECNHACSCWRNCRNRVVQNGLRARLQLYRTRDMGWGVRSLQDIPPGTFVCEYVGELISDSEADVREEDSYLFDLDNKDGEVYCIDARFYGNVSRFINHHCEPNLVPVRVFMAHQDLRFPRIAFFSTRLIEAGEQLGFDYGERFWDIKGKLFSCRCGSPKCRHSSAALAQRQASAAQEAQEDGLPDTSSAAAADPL

[16] = Mus musculus, 4T1, read-out: IC50

| SMILES | IC50 (MDA-MB-231 [1]) [µM] | IC50 (4T1; [16]) [µM] | inhibition [2] [%] | also measured |
| --- | --- | --- | --- | --- |
| COc1cc2nc(N3CCCN(C)CC3)nc(NC3CCN(Cc4ccccc4)CC3)c2cc1OC | – | – | – | IC50 at 2 days [3]: 4.28 µM |
| CCC(=O)N1CCC=C(c2nc(NC3CCN(C)CC3)c3cc(OC)c(OC)cc3n2)C1 | – | – | – | inhibition [4]: inactive |
| CCC(=O)Nc1cccc(-c2nc(NC3CCN(C)CC3)c3cc(OC)c(OC)cc3n2)c1 | – | – | – | Activity (MDA-MB-231 [5]): 7.29%; Activity (MDA-MB-231 [6]): 1.32%; viability at 20 µM (MDA-MB-231 [7]): 82.7%; Activity (MDA-MB-231 [8]): 8.69%; inhibition [4]: inactive; inhibition [9]: Active; Activity (MDA-MB-231 [10]): inactive |
| C=CC(=O)N1CC=C(c2nc(NC3CCN(Cc4ccccc4)CC3)c3cc(OC)c(OC)cc3n2)C1 | 1.6 | 8.96 | 38 | – |
| CCC(=O)N1CC=C(c2nc(NC3CCN(C)CC3)c3cc(OC)c(OC)cc3n2)C1 | – | – | – | inhibition [4]: inactive |
| C=CC(=O)NC/C=C/c1nc(NC2CCN(Cc3ccccc3)CC2)c2cc(OC)c(OC)cc2n1 | 2.07 | 17.6 | 60 | – |
| C=CC(=O)N1CCC=C(c2nc(NC3CCN(C(C)C)CC3)c3cc(OC)c(OC)cc3n2)C1 | 13.4 | 11.2 | 7 | – |
| C=CC(=O)NC/C=C/c1nc(NC2CCN(C)CC2)c2cc(OC)c(OC)cc2n1 | > 30 | > 30 | – | – |
| C=CC(=O)Nc1ccc(C)c(-c2nc(NC3CCN(C(C)C)CC3)c3cc(OC)c(OC)cc3n2)c1 | 18.3 | 25.6 | – | – |
| C=CC(=O)NC/C=C/c1nc(NC2CCN(C(C)C)CC2)c2cc(OC)c(OC)cc2n1 | 2.26 | > 30 | 56 | – |

The next lines start with results.

| IC50 (MDA-MB-231 [1]) [µM] | IC50 (4T1; [16]) [µM] | inhibition [2] [%] | SMILES | also measured |
| --- | --- | --- | --- | --- |
| 1.27 | 28.1 | 24 | C=CC(=O)N1CC=C(c2nc(NC3CCN(C(C)C)CC3)c3cc(OC)c(OC)cc3n2)C1 | – |
| 0.99 | – | – | COc1cc2c(NC3CCN(C(C)C)CC3)nc(N3CCC(F)(F)CC3)nc2cc1OCCCN1CCCC1 | IC50 (MDA-MB-231 [11]): 1 µM; inhibition [12]: Dose-Dependent Effect; inhibition [13]: inactive; Activity (MDA-MB-231 [5]): 16.69%; Activity (MDA-MB-231 [6]): 4.04%; IC50 at 2 days [3]: 6.99 µM; inhibition (MDA-MB-231 [14]): Active; viability at 20 µM (MDA-MB-231 [7]): 7.16%; Activity (MDA-MB-231 [8]): 72.11%; IC50 (4T1; 4t1): 1.55 µM; Activity (MDA-MB-231 [10]): inactive |
| 3.52 | 8.94 | 98 | C=CC(=O)N1CCC=C(c2nc(NC3CCN(C)CC3)c3cc(OC)c(OC)cc3n2)C1 | inhibition [15]: Active |
| 10.5 | 28.6 | – | C=CC(=O)N1CCC=C(c2nc(NC3CCN(Cc4ccccc4)CC3)c3cc(OC)c(OC)cc3n2)C1 | – |
| 1.53 | 10.4 | 26 | C=CC(=O)Nc1cccc(-c2nc(NC3CCN(C(C)C)CC3)c3cc(OC)c(OC)cc3n2)c1 | – |
| 0.89 | 10.4 | 98 | C=CC(=O)N1CC=C(c2nc(NC3CCN(C)CC3)c3cc(OC)c(OC)cc3n2)C1 | inhibition [15]: Active |
